In patent US8637525B2, “Compounds for the reduction of beta-amyloid production” (Bristol-Myers Squibb Company, priority 2009, dated 2014) one finds IC50 data, which are given here for 26 compounds.

Structures can show the parent of a compound that is named as a salt.

As usually defined, the IC50 is the concentration needed to halve the response being measured.

The test system of one assay is Aβ1-42 production. Briefly: Cellular assay for inhibition of Aβ1-42 production (H4 APP751 SWE clone 8.20). In kind it is cell-based. Particulars: 19 h, H4 APP751 SWE clone 8.20 cells, 19 h incubation; class symbols; read-out: Activity Rating (Aβ42 cellular IC50). The essentials:
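Secreted peptide was quantified with a two-antibody homogeneous format combining Wallac-labelled 565, which recognises the Aβ42 end, and APC-labelled 26D6 at 0.8 and 75 ng/well respectively. Antibodies were diluted in 40 mM Tris-HCl, pH 7.4, 0.2% BSA and left overnight at 4 °C after a 19 h compound incubation.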
For the compound `CNc1nc(Nc2ccc(CC#N)cc2)nc2c1CCC2c1ccccc1` (centres unmarked) [Example 231, 2-(4-(4-(methylamino)-7-phenyl-6,7-dihydro-5H-cyclopenta[d]pyrimidin-2-ylamino)phenyl)acetonitrile], the IC50 fell in the range of 100 to 1000 nM.

With `CNc1nc(Nc2ccc(-n3cnc(C#N)c3)c(OC)c2)nc2c1CCC2c1ccccc1` (centres unmarked) [Example 204B, 1-(2-methoxy-4-(4-(methylamino)-7-phenyl-6,7-dihydro-5H-cyclopenta[d]pyrimidin-2-ylamino)phenyl)-1H-imidazole-4-carbonitrile], the concentration for half-maximal inhibition (IC50) was in the range of 100 to 1000 nM.

Regarding `CNc1nc(Nc2ccccc2C#N)nc2c1CCC2c1ccccc1` (centres unmarked) [Example 228, 2-(4-(methylamino)-7-phenyl-6,7-dihydro-5H-cyclopenta[d]pyrimidin-2-ylamino)benzonitrile], the concentration for half-maximal inhibition (IC50) was > 1000 nM.

For `CCN(C)c1nc(Nc2ccc(-n3cnc(Cl)c3)c(OC)c2)nc2c1CCNC2c1ccc(F)cc1` (centres unmarked) [Example 166, N2-(4-(4-chloro-1H-imidazol-1-yl)-3-methoxyphenyl)-N4-ethyl-8-(4-fluorophenyl)-N4-methyl-5,6,7,8-tetrahydropyrido[3,4-d]pyrimidine-2,4-diamine], the concentration for half-maximal inhibition (IC50) fell in the range of 100 to 1000 nM.

In the case of `CCNc1nc(Nc2ccc(-n3ncnc3C)c(F)c2)nc2c1COCC2c1ccc(F)cc1` (centres unmarked) [Example 59A, N4-ethyl-N2-(3-fluoro-4-(5-methyl-1H-1,2,4-triazol-1-yl)phenyl)-8-(4-fluorophenyl)-7,8-dihydro-5H-pyrano[4,3-d]pyrimidine-2,4-diamine], the IC50 fell in the range of 1.5 to 9.9 nM.

Regarding `CNc1nc(Nc2cccc(OC)c2)nc2c1CCC2c1ccccc1` (centres unmarked) [Example 217, N2-(3-methoxyphenyl)-N4-methyl-7-phenyl-6,7-dihydro-5H-cyclopenta[d]pyrimidine-2,4-diamine], the IC50 was > 1000 nM.

`CCNc1nc(Nc2ccc(-n3cnc(Cl)c3)c(OC)c2)nc2c1CN(C(=O)CN(C)C)CC2c1ccccc1` (centres unmarked) [Example 135, 1-(2-(4-(4-chloro-1H-imidazol-1-yl)-3-methoxyphenylamino)-4-(ethylamino)-8-phenyl-7,8-dihydropyrido[4,3-d]pyrimidin-6(5H)-yl)-2-(dimethylamino)ethanone]: the IC50 fell in the range of 10 to 100 nM.

With `CCNc1nc(Nc2ccc(-n3cnc(Cl)c3)c(OC)c2)nc2c1CCN(S(C)(=O)=O)C2c1ccc(F)cc1` (centres unmarked) [Example 168A, N2-(4-(4-chloro-1H-imidazol-1-yl)-3-methoxyphenyl)-N4-ethyl-8-(4-fluorophenyl)-7-(methylsulfonyl)-5,6,7,8-tetrahydropyrido[3,4-d]pyrimidine-2,4-diamine], the IC50 lay within 1.5 to 9.9 nM.

For `COc1cc(Nc2nc(N[C@H](C)C3CC3)c3c(n2)C(c2ccc(F)cc2)OC3)ccc1-n1cnc(Cl)c1` (stereo partly drawn) [Example 81, N2-(4-(4-chloro-1H-imidazol-1-yl)-3-methoxyphenyl)-N4-((R)-1-cyclopropylethyl)-7-(4-fluorophenyl)-5,7-dihydrofuro[3,4-d]pyrimidine-2,4-diamine, TFA], the IC50 lay within 10 to 100 nM.

Staying with this assay, now noted: 19 h, H4 APP751 SWE clone 8.20 cells, 19 h incubation; read-out: Activity Rating (Aβ42 cellular IC50), numeric value.
For `COc1cc(Nc2nc3c(c(N4CC(F)(F)C4)n2)CCC3c2ccc(Cl)cc2)ccc1-n1cnc(Cl)c1` (centres unmarked) [Example 93, N-(4-(4-Chloro-1H-imidazol-1-yl)-3-methoxyphenyl)-7-(4-chlorophenyl)-4-(3,3-difluoroazetidin-1-yl)-6,7-dihydro-5H-cyclopenta[d]pyrimidin-2-amine], the IC50 stood at 20 nM.

For `Cc1ncnn1-c1ccc(Nc2nc3c(c(N(C)C)n2)COCC3c2ccc(Cl)cc2)cc1F` (single isomer, unassigned) [Example 67B, 8-(4-chlorophenyl)-N^2-(3-fluoro-4-(5-methyl-1H-1,2,4-triazol-1-yl)phenyl)-N^4,N^4-dimethyl-7,8-dihydro-5H-pyrano[4,3-d]pyrimidine-2,4-diamine], the half-maximal inhibitory concentration (IC50) stood at 540 nM.

On to `CCN(C)c1nc(Nc2ccc(-n3cnc(Cl)c3)c(OC)c2)nc2c1CN(C)CC2c1ccc(F)cc1` (centres unmarked) [Example 165B, N2-(4-(4-chloro-1H-imidazol-1-yl)-3-methoxyphenyl)-N4-ethyl-8-(4-fluorophenyl)-N4,6-dimethyl-5,6,7,8-tetrahydropyrido[4,3-d]pyrimidine-2,4-diamine], for which the 50% inhibitory concentration (IC50) was 180 nM.

`COc1cc(Nc2nc(NC3CCC3)c3c(n2)C(c2ccccc2)CC3)ccc1-n1cnc(Cl)c1` (centres unmarked) [Example 9, N2-(4-(4-chloro-1H-imidazol-1-yl)-3-methoxyphenyl)-N4-cyclobutyl-7-phenyl-6,7-dihydro-5H-cyclopenta[d]pyrimidine-2,4-diamine]: the half-maximal inhibitory concentration (IC50) stood at 8.1 nM.

Still in this assay, the particulars now being: H4 APP751 SWE clone 8.20 cells, 19 h incubation; class symbols; read-out: Activity Rating (Aβ42 cellular IC50).
As for `CNc1nc(Nc2ccc(-n3cnc(C)n3)c(OC)c2)nc2c1COCC2c1ccc(F)cc1` (centres unmarked) [Example 54B, 8-(4-fluorophenyl)-N2-(3-methoxy-4-(3-methyl-1H-1,2,4-triazol-1-yl)phenyl)-N4-methyl-7,8-dihydro-5H-pyrano[4,3-d]pyrimidine-2,4-diamine], the IC50 fell in the range of 1.5 to 9.9 nM.

Regarding `CCNc1nc(Nc2ccc(-n3cnc(Cl)c3)c(OC)c2)nc2c1CCC2(C)c1ccccc1` (centres unmarked) [Example 110B, N2-(4-(4-chloro-1H-imidazol-1-yl)-3-methoxyphenyl)-N4-ethyl-7-methyl-7-phenyl-6,7-dihydro-5H-cyclopenta[d]pyrimidine-2,4-diamine], the half-inhibitory concentration (IC50) was in the range of 10 to 100 nM.

Take `CNc1nc(Nc2ccc(-n3cnc(Cl)c3)c(OC)c2)nc2c1CCC2c1ccccc1` (single isomer, unassigned) [Example 7A, N^2-(4-(4-chloro-1H-imidazol-1-yl)-3-methoxyphenyl)-N^4-methyl-7-phenyl-6,7-dihydro-5H-cyclopenta[d]pyrimidine-2,4-diamine]: the IC50 was 1.5 to 9.9 nM.

Turning to `CCNc1nc(Nc2ccc(-n3cnc(Cl)c3)c(OC)c2)nc2c1COC2c1ccc(F)cc1` (single isomer, unassigned) [Example 75B, N^2-(4-(4-chloro-1H-imidazol-1-yl)-3-methoxyphenyl)-N^4-ethyl-7-(4-fluorophenyl)-5,7-dihydrofuro[3,4-d]pyrimidine-2,4-diamine], the half-maximal inhibitory concentration (IC50) was 10 to 100 nM.

On to `CNc1nc(Nc2ccc(-n3ncnc3C)c(F)c2)nc2c1COC2c1ccc(F)cc1` (centres unmarked) [Example 82A, N2-(3-fluoro-4-(5-methyl-1H-1,2,4-triazol-1-yl)phenyl)-7-(4-fluorophenyl)-N4-methyl-5,7-dihydrofuro[3,4-d]pyrimidine-2,4-diamine], for which the concentration for half-maximal inhibition (IC50) lay in the range of 1.5 to 9.9 nM.

`COc1cc(Nc2nc3c(c(N4CCC(F)(F)C4)n2)CCC3c2cc(F)c(F)c(F)c2)ccc1-n1cnc(Cl)c1` (single isomer, unassigned) [Example 107B, N-(4-(4-chloro-1H-imidazol-1-yl)-3-methoxyphenyl)-4-(3,3-difluoropyrrolidin-1-yl)-7-(3,4,5-trifluorophenyl)-6,7-dihydro-5H-cyclopenta[d]pyrimidin-2-amine]: the half-inhibitory concentration (IC50) was in the range of 100 to 1000 nM.

Consider `COCC(Nc1nc(Nc2ccc(-n3cnc(Cl)c3)c(OC)c2)nc2c1CCC2c1ccc(F)cc1)C1CC1` (single isomer, unassigned) [Example 45A, N2-(4-(4-chloro-1H-imidazol-1-yl)-3-methoxyphenyl)-N4-(1-cyclopropyl-2-methoxyethyl)-7-(4-fluorophenyl)-6,7-dihydro-5H-cyclopenta[d]pyrimidine-2,4-diamine], for which the half-maximal inhibitory concentration (IC50) fell in the range of 10 to 100 nM.

In the case of `CNc1nc(Nc2ccc(-n3cnc(C)c3)c(OC)c2)nc2c1COCC2c1ccc(Cl)cc1` (single isomer, unassigned) [Example 70B, 8-(4-chlorophenyl)-N^2-(3-methoxy-4-(4-methyl-1H-imidazol-1-yl)phenyl)-N^4-methyl-7,8-dihydro-5H-pyrano[4,3-d]pyrimidine-2,4-diamine], the IC50 lay in the range of 10 to 100 nM.

On to `CCC1CCCN1c1nc(Nc2ccc(-n3cnc(Cl)c3)c(OC)c2)nc2c1CCC2c1ccc(F)cc1` (single isomer, unassigned) [Example 24, N-(4-(4-chloro-1H-imidazol-1-yl)-3-methoxyphenyl)-4-(2-ethylpyrrolidin-1-yl)-7-(4-fluorophenyl)-6,7-dihydro-5H-cyclopenta[d]pyrimidin-2-amine], for which the concentration for half-maximal inhibition (IC50) lay in the range of 10 to 100 nM.

Consider `COc1cc(Nc2nc3c(c(N(C)C)n2)CCC3c2ccc(F)c(F)c2)ccc1-n1cnc(Cl)c1` (single isomer, unassigned) [Example 95A, N^2-(4-(4-chloro-1H-imidazol-1-yl)-3-methoxyphenyl)-7-(3,4-difluorophenyl)-N^4,N^4-dimethyl-6,7-dihydro-5H-cyclopenta[d]pyrimidine-2,4-diamine], for which the half-maximal inhibitory concentration (IC50) lay within 1.5 to 9.9 nM.

Regarding `CCNc1nc(Nc2ccc(-n3cnc(Cl)c3)c(OC)c2)nc2c1COC2c1ccc(F)cc1` (single isomer, unassigned) [Example 75A, N^2-(4-(4-chloro-1H-imidazol-1-yl)-3-methoxyphenyl)-N^4-ethyl-7-(4-fluorophenyl)-5,7-dihydrofuro[3,4-d]pyrimidine-2,4-diamine], the concentration for half-maximal inhibition (IC50) lay in the range of 1.5 to 9.9 nM.

`CCNc1nc(Nc2ccc(-n3cnc(Cl)c3)c(OC)c2)nc2c1CCN(C(=O)OC)C2c1ccc(F)cc1` (single isomer, unassigned) [Example 170A, methyl 2-(4-(4-chloro-1H-imidazol-1-yl)-3-methoxyphenylamino)-4-(ethylamino)-8-(4-fluorophenyl)-5,6-dihydropyrido[3,4-d]pyrimidine-7(8H)-carboxylate]: the IC50 is 1.5 to 9.9 nM.

As for `COc1cc(Nc2nc3c(c(N4CC(F)(F)C4)n2)COCC3c2ccc(Cl)cc2)ccc1-n1cnc(Cl)c1` (single isomer, unassigned) [Example 66B, N-(4-(4-chloro-1H-imidazol-1-yl)-3-methoxyphenyl)-8-(4-chlorophenyl)-4-(3,3-difluoroazetidin-1-yl)-7,8-dihydro-5H-pyrano[4,3-d]pyrimidin-2-amine], the half-maximal inhibitory concentration (IC50) lay within 1.5 to 9.9 nM.
